Key:
[1] = tested on: basal cells and pyramidal cells of the airway epithelium; assay: miRNA expression in sorted basal cells versus pyramidal cells (ciliated + secretory), HTS and Agilent chips; design: species or system human; conditions: for Modulation of expression of the miRNAs in pyramidal cells (323(−)) relative to basal cells 323(+): HTS and Agilent chips; for Intensity of the level of expression in log2 in pyramidal cells (323(−)): pyramidal cells (ciliated + secretory)
How it was run: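 Sorted basal versus ciliated/mucus-secreting cells; markers CD151 and tissue factor; donors n=3; miRNA by Agilent chip or HTS.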

[2] = tested on: human airway epithelial cells (HAECs); assay: High-throughput sequencing (HTS) of miRNAs at four stages of differentiation of HAECs; conditions: for Modulation (ratio of the level of intensity of expression in log2 in two stages of differentiation) measured by high-throughput sequencing, D7 − D0 / Modulation (ratio of the level of intensity of expression in log2 in two stages of differentiation) measured by high-throughput sequencing, FC − D7 / Modulation (ratio of the level of intensity of expression in log2 in two stages of differentiation) measured by high-throughput sequencing, WD − D0 / Modulation (ratio of the level of intensity of expression in log2 in two stages of differentiation) measured by high-throughput sequencing, WD − FC / Level of intensity of expression in log2 measured by high-throughput sequencing, D0 / Level of intensity of expression in log2 measured by high-throughput sequencing, D7 / Level of intensity of expression in log2 measured by high-throughput sequencing, FC / Level of intensity of expression in log2 measured by high-throughput sequencing, WD: Table VI; for Modulation (ratio of the level of intensity of expression in log2 in two stages of differentiation), D7 − D0 / Modulation (ratio of the level of intensity of expression in log2 in two stages of differentiation), FC − D7 / Modulation (ratio of the level of intensity of expression in log2 in two stages of differentiation), WD − FC / Abundance (%), D0 / Abundance (%), D7 / Abundance (%), FC / Abundance (%), WD: HTS; for Abundance (%), D0: ALI-D0; for Abundance (%), D7: ALI-D7; for Abundance (%), FC: ALI-FC; for Abundance (%), WD: ALI-WD; for Level of intensity of expression in log2 At the differentiated stage (WD) measured in HTS: healthy human airway epithelial tissue; for Level of intensity of expression in log2 measured by high-throughput sequencing, D0: stage D0; for Level of intensity of expression in log2 measured by high-throughput sequencing, D7: stage D7; for Level of intensity of expression in log2 measured by high-throughput sequencing, FC: stage FC; for Level of intensity of expression in log2 At the differentiated stage (WD) measured in HTS / Level of intensity of expression in log2 measured by high-throughput sequencing, WD: stage WD
How it was run: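 Differentiation time course at air-liquid interface: 0, 7, ~14 (first cilia) and ~21 days (fully differentiated). Sequencing counts per strand were normalized to 10^6 sequences and analysed by linear model with empirical Bayesian moderation.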

[3] = tested on: human airway epithelial cells (HAECs); assay: Agilent miRNA chips, miRNA expression at four stages of differentiation of HAECs; conditions: for Modulation (ratio of the level of intensity of expression in log2 in two stages of differentiation) measured with the Agilent chips, D7 − D0 / Modulation (ratio of the level of intensity of expression in log2 in two stages of differentiation) measured with the Agilent chips, FC − D7 / Modulation (ratio of the level of intensity of expression in log2 in two stages of differentiation) measured with the Agilent chips, WD − D0 / Modulation (ratio of the level of intensity of expression in log2 in two stages of differentiation) measured with the Agilent chips, WD − FC / Level of intensity of expression in log2 measured with the Agilent chips, D0 / Level of intensity of expression in log2 measured with the Agilent chips, D7 / Level of intensity of expression in log2 measured with the Agilent chips, FC / Level of intensity of expression in log2 measured with the Agilent chips, WD: Table VI; for Modulation (ratio of the level of intensity of expression in log2 at two stages of differentiation), FC − D7 / Modulation (ratio of the level of intensity of expression in log2 at two stages of differentiation), WD − FC: Agilent miRNA chips, Table V; for Level of intensity of expression in log2 measured with the Agilent chips, D0: stage D0; for Level of intensity of expression in log2 measured with the Agilent chips, D7: stage D7; for Level of intensity of expression in log2 measured with the Agilent chips, FC: stage FC; for Level of intensity of expression in log2 measured with the Agilent chips, WD: stage WD
How it was run: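 Patient RNA samples, the same ones analysed by high-throughput sequencing, were first labelled, then hybridized onto arrays carrying 866 human and 89 human viral miRNAs (miRBase v.12.0), following the supplied labelling and hybridization protocol.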

Substance	Modulation of expression of the miRNAs in pyramidal cells (323(−)) relative to basal cells 323(+) [1]	Intensity of the level of expression in log2 in basal cells (323(+)) [1]	Intensity of the level of expression in log2 in pyramidal cells (323(−)) [1]	Modulation (ratio of the level of intensity of expression in log2 in two stages of differentiation) measured by high-throughput sequencing, D7 − D0 [2]	Modulation (ratio of the level of intensity of expression in log2 in two stages of differentiation) measured by high-throughput sequencing, FC − D7 [2]	Modulation (ratio of the level of intensity of expression in log2 in two stages of differentiation) measured by high-throughput sequencing, WD − D0 [2]	Modulation (ratio of the level of intensity of expression in log2 in two stages of differentiation) measured by high-throughput sequencing, WD − FC [2]	Level of intensity of expression in log2 At the differentiated stage (WD) measured in HTS [2]	Level of intensity of expression in log2 measured by high-throughput sequencing, D0 [2]	Level of intensity of expression in log2 measured by high-throughput sequencing, D7 [2]	Level of intensity of expression in log2 measured by high-throughput sequencing, FC [2]	Level of intensity of expression in log2 measured by high-throughput sequencing, WD [2]	Modulation (ratio of the level of intensity of expression in log2 in two stages of differentiation) measured with the Agilent chips, D7 − D0 [3]	Modulation (ratio of the level of intensity of expression in log2 in two stages of differentiation) measured with the Agilent chips, FC − D7 [3]	Modulation (ratio of the level of intensity of expression in log2 in two stages of differentiation) measured with the Agilent chips, WD − D0 [3]	Modulation (ratio of the level of intensity of expression in log2 in two stages of differentiation) measured with the Agilent chips, WD − FC [3]	Level of intensity of expression in log2 measured with the Agilent chips, D0 [3]	Level of intensity of expression in log2 measured with the Agilent chips, D7 [3]	Level of intensity of expression in log2 measured with the Agilent chips, FC [3]	Level of intensity of expression in log2 measured with the Agilent chips, WD [3]	further results
hsa-miR-130a: human miRNA, SEQ ID No. 4 (CAGUGCAAUGUUAAAAGGGCAU; expressed or natural sequence; listed as Homo sapiens)	−6.33	9.76 log2	3.43 log2	−1.40 log2	0.19 log2	−1.94 log2	−0.73 log2	11.98 log2	13.91 log2	12.51 log2	12.71 log2	11.98 log2	0.65 log2	−1.53 log2	−1.31 log2	−0.43 log2	8.83 log2	9.48 log2	7.95 log2	7.52 log2	cell type in which the miRNA is specifically expressed ([1]; sorted ciliated/pyramidal versus basal cells): more specific to the basal cells; Modulation (ratio of the level of intensity of expression in log2 in two stages of differentiation), D7 − D0 [2]: −1.40 log2; Modulation (ratio of the level of intensity of expression in log2 in two stages of differentiation), FC − D7 [2]: 0.19 log2; Modulation (ratio of the level of intensity of expression in log2 in two stages of differentiation), WD − FC [2]: −0.73 log2; Abundance (%), D0 [2]: 3.38%; Abundance (%), D7 [2]: 1.28%; Abundance (%), FC [2]: 1.42%; Abundance (%), WD [2]: 0.65%; Modulation (ratio of the level of intensity of expression in log2 at two stages of differentiation), FC − D7 [3]: −1.53 log2; Modulation (ratio of the level of intensity of expression in log2 at two stages of differentiation), WD − FC [3]: −0.43 log2
hsa-miR-140-3p: human miRNA, SEQ ID No. 5 (UACCACAGGGUAGAACCACGG; expressed or natural sequence; listed as Homo sapiens)	0.91	2.75 log2	3.66 log2	0.33 log2	0.37 log2	0.73 log2	0.04 log2	13.12 log2	12.39 log2	12.72 log2	13.08 log2	13.12 log2	1.54 log2	−0.08 log2	1.52 log2	0.06 log2	3.55 log2	5.09 log2	5.01 log2	5.07 log2	Modulation (ratio of the level of intensity of expression in log2 in two stages of differentiation), D7 − D0 [2]: 0.33 log2; Modulation (ratio of the level of intensity of expression in log2 in two stages of differentiation), FC − D7 [2]: 0.37 log2; Modulation (ratio of the level of intensity of expression in log2 in two stages of differentiation), WD − FC [2]: 0.04 log2; Abundance (%), D0 [2]: 1.17%; Abundance (%), D7 [2]: 1.48%; Abundance (%), FC [2]: 1.85%; Abundance (%), WD [2]: 1.44%
hsa-miR-141: human miRNA, SEQ ID No. 6 (UAACACUGUCUGGUAAAGAUGG; expressed or natural sequence; listed as Homo sapiens)	−2.88	11.12 log2	8.24 log2	1.17 log2	0.37 log2	1.70 log2	0.17 log2	9.75 log2	8.05 log2	9.22 log2	9.58 log2	9.75 log2	2.16 log2	−0.28 log2	1.88 log2	0.00 log2	11.15 log2	13.31 log2	13.03 log2	13.03 log2	Modulation (ratio of the level of intensity of expression in log2 at two stages of differentiation), FC − D7 [3]: −0.28 log2; Modulation (ratio of the level of intensity of expression in log2 at two stages of differentiation), WD − FC [3]: 0.00 log2

Source: patent US9023821B2, “Use of MicroRNA for treating diseases associated with a dysfunction of the cilia in multiciliated epithelial cells” (Centre National de la Recherche Scientifique, priority 2009, dated 2015)
